# Laboratory results taken from PubChem BioAssay AID1963972 (Molecular Pharmacology Branch, DTP, NCI, 2024).
# System: 945468-187-T-J2-PDC spheroids viability
# Experiment: Anticancer human tumor 945468-187-T-J2-PDC patient-derived rectal carcinoma cell line growth inhibition [PI3K]
# Conditions: spheroids with HUVEC and MSC; for IC50: curve of first compound; for viability, T/C: stronger effect = lower value
# In short: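 Tumor cells were combined with HUVEC and MSCs into spheroids, then dosed with PI3K-inhibitor combinations over half-log ranges capped near clinical Cmax or 10 microM.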
# [1] = second compound 0.0316 µM, first compound 0.0316 µM
# [2] = second compound 0.0316 µM, first compound 0.1 µM
# [3] = second compound 0.1 µM, first compound 0.0316 µM
# [4] = second compound 0.1 µM, first compound 0.1 µM
# [5] = second compound 0.316 µM, first compound 0.0316 µM
# [6] = second compound 0.316 µM, first compound 0.1 µM
# [7] = second compound 1 µM, first compound 0.0316 µM
# [8] = second compound 1 µM, first compound 0.1 µM
# [9] = second compound 3.16 µM, first compound 0.0316 µM
# [10] = second compound 3.16 µM, first compound 0.1 µM
# [11] = second compound 10 µM, first compound 0.0316 µM
# [12] = second compound 10 µM, first compound 0.1 µM
# 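Note: spheroids exposed to compounds for seven days before reading.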
compound,measurement,setting,value
CC(=O)c1c(C)c2cnc(Nc3ccc(N4CCNCC4)cn3)nc2n(C2CCCC2)c1=O + CC(Nc1ncnc2nc[nH]c12)c1cc2cccc(Cl)c2c(=O)n1-c1ccccc1,IC50,second compound 0.0316 µM,> 0.1 µM
same,IC50,second compound 0.1 µM,> 0.1 µM
same,IC50,second compound 0.316 µM,> 0.1 µM
same,IC50,second compound 1 µM,> 0.1 µM
same,IC50,second compound 3.16 µM,> 0.1 µM
same,IC50,second compound 10 µM,> 0.1 µM
same,"viability, T/C","second compound 0.0316 µM, first compound 0.000316 µM",104%
same,"viability, T/C","second compound 0.0316 µM, first compound 0.001 µM",80%
same,"viability, T/C","second compound 0.0316 µM, first compound 0.00316 µM",101%
same,"viability, T/C","second compound 0.0316 µM, first compound 0.01 µM",100%
same,"viability, T/C",[1],90%
same,"viability, T/C",[2],122%
same,"viability, T/C","second compound 0.1 µM, first compound 0.000316 µM",98.9%
same,"viability, T/C","second compound 0.1 µM, first compound 0.001 µM",101%
same,"viability, T/C","second compound 0.1 µM, first compound 0.00316 µM",89.4%
same,"viability, T/C","second compound 0.1 µM, first compound 0.01 µM",80.3%
same,"viability, T/C",[3],104%
same,"viability, T/C",[4],101%
same,"viability, T/C","second compound 0.316 µM, first compound 0.000316 µM",82.3%
same,"viability, T/C","second compound 0.316 µM, first compound 0.001 µM",108%
same,"viability, T/C","second compound 0.316 µM, first compound 0.00316 µM",103%
same,"viability, T/C","second compound 0.316 µM, first compound 0.01 µM",98.4%
same,"viability, T/C",[5],113%
same,"viability, T/C",[6],88.7%
same,"viability, T/C","second compound 1 µM, first compound 0.000316 µM",91.2%
same,"viability, T/C","second compound 1 µM, first compound 0.001 µM",103%
same,"viability, T/C","second compound 1 µM, first compound 0.00316 µM",85.4%
same,"viability, T/C","second compound 1 µM, first compound 0.01 µM",89.8%
same,"viability, T/C",[7],90.7%
same,"viability, T/C",[8],109%
same,"viability, T/C","second compound 3.16 µM, first compound 0.000316 µM",87.8%
same,"viability, T/C","second compound 3.16 µM, first compound 0.001 µM",87%
same,"viability, T/C","second compound 3.16 µM, first compound 0.00316 µM",102%
same,"viability, T/C","second compound 3.16 µM, first compound 0.01 µM",99.5%
same,"viability, T/C",[9],111%
same,"viability, T/C",[10],118%
same,"viability, T/C","second compound 10 µM, first compound 0.000316 µM",101%
same,"viability, T/C","second compound 10 µM, first compound 0.001 µM",100%
same,"viability, T/C","second compound 10 µM, first compound 0.00316 µM",101%
same,"viability, T/C","second compound 10 µM, first compound 0.01 µM",87.9%
same,"viability, T/C",[11],99.5%
same,"viability, T/C",[12],121%
CNC(=O)c1ccc(N2C(=S)N(c3ccc(C#N)c(C(F)(F)F)c3)C(=O)C2(C)C)cc1F + CC(Nc1ncnc2nc[nH]c12)c1cc2cccc(Cl)c2c(=O)n1-c1ccccc1,IC50,second compound 0.0316 µM,> 10 µM
same,IC50,second compound 0.1 µM,> 10 µM
same,IC50,second compound 0.316 µM,> 10 µM
same,IC50,second compound 1 µM,> 10 µM
same,IC50,second compound 3.16 µM,> 10 µM
same,IC50,second compound 10 µM,> 10 µM
same,"viability, T/C",[1],111%
same,"viability, T/C",[2],93.6%
same,"viability, T/C","second compound 0.0316 µM, first compound 0.316 µM",96.3%
same,"viability, T/C","second compound 0.0316 µM, first compound 1 µM",85.3%
same,"viability, T/C","second compound 0.0316 µM, first compound 3.16 µM",85.1%
same,"viability, T/C","second compound 0.0316 µM, first compound 10 µM",75.7%
same,"viability, T/C",[3],92.6%
same,"viability, T/C",[4],92.5%
same,"viability, T/C","second compound 0.1 µM, first compound 0.316 µM",91.1%
same,"viability, T/C","second compound 0.1 µM, first compound 1 µM",91%
same,"viability, T/C","second compound 0.1 µM, first compound 3.16 µM",106%
same,"viability, T/C","second compound 0.1 µM, first compound 10 µM",88.3%
same,"viability, T/C",[5],138%
same,"viability, T/C",[6],100%
same,"viability, T/C","second compound 0.316 µM, first compound 0.316 µM",95.7%
same,"viability, T/C","second compound 0.316 µM, first compound 1 µM",111%
same,"viability, T/C","second compound 0.316 µM, first compound 3.16 µM",101%
same,"viability, T/C","second compound 0.316 µM, first compound 10 µM",89.5%
same,"viability, T/C",[7],95.5%
same,"viability, T/C",[8],87%
same,"viability, T/C","second compound 1 µM, first compound 0.316 µM",100%
same,"viability, T/C","second compound 1 µM, first compound 1 µM",105%
same,"viability, T/C","second compound 1 µM, first compound 3.16 µM",104%
same,"viability, T/C","second compound 1 µM, first compound 10 µM",114%
same,"viability, T/C",[9],111%
same,"viability, T/C",[10],93.9%
same,"viability, T/C","second compound 3.16 µM, first compound 0.316 µM",89.7%
same,"viability, T/C","second compound 3.16 µM, first compound 1 µM",106%
same,"viability, T/C","second compound 3.16 µM, first compound 3.16 µM",105%
same,"viability, T/C","second compound 3.16 µM, first compound 10 µM",93.3%
same,"viability, T/C",[11],89.4%
same,"viability, T/C",[12],108%
same,"viability, T/C","second compound 10 µM, first compound 0.316 µM",101%
same,"viability, T/C","second compound 10 µM, first compound 1 µM",102%
same,"viability, T/C","second compound 10 µM, first compound 3.16 µM",113%
same,"viability, T/C","second compound 10 µM, first compound 10 µM",90.5%
